Assay results as given in ChEMBL document CHEMBL1201862, “PubChem BioAssay data set” (2004).
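Where inhibition never reached the appropriate level, the endpoint shown equals the highest concentration tested. Otherwise, values were interpolated linearly from a five-concentration, 48-hour dose response in 96-well plates. Abbreviation: GI50, concentration required for 50% inhibition of growth.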 Calls of active or inactive are those of the source. Rule as the data show it: active = GI50 up to about 1.1 µM and inactive = higher.

What was measured:
Experiment in all cases: NCI-60 cell line screen, 48 h
CAKI-1 = system: CAKI-1
CCRF-CEM = system: CCRF-CEM
DU-145 = system: DU-145
HOP-62 = system: HOP-62
K562 = system: K562
KM12 = system: KM12
LOX IMVI = system: LOX IMVI
MCF7 = system: MCF7
NCI-H226 = system: NCI-H226
NCI-H23 = system: NCI-H23
NCI/ADR-RES = system: NCI/ADR-RES
OVCAR-4 = system: OVCAR-4
OVCAR-5 = system: OVCAR-5
PC-3 = system: PC-3
SF-539 = system: SF-539
SK-MEL-28 = system: SK-MEL-28
SNB-19 = system: SNB-19
SR = system: SR
HL-60 = system: HL-60

Measured: GI50

COc1ccc2c(c1)CC[C@@H]1[C@@H]2CC[C@]2(C)C(=O)/C(=C/c3ccncc3)C[C@@H]12
inactive: CAKI-1 46.5 µM | CCRF-CEM > 100 µM | DU-145 38.8 µM | HOP-62 19.9 µM | K562 > 100 µM | KM12 27.2 µM | LOX IMVI 37.8 µM | MCF7 61.4 µM | NCI-H226 63 µM | NCI-H23 35.3 µM | NCI/ADR-RES 48.8 µM | OVCAR-4 48.2 µM | OVCAR-5 48.9 µM | PC-3 29.3 µM | SF-539 25.5 µM | SK-MEL-28 33.6 µM | SNB-19 44.3 µM | SR 47.2 µM

COc1ccc2c(c1OC(C)=O)C1=CC(=O)CCC13CCNC3C2 (stereo unspecified)
inactive: CAKI-1 > 100 µM | CCRF-CEM > 100 µM | DU-145 > 100 µM | HL-60 > 100 µM | HOP-62 > 100 µM | K562 > 100 µM | KM12 > 100 µM | LOX IMVI > 100 µM | MCF7 > 100 µM | NCI-H226 > 100 µM | NCI-H23 > 100 µM | NCI/ADR-RES > 100 µM | OVCAR-4 > 100 µM | OVCAR-5 > 100 µM | PC-3 > 100 µM | SK-MEL-28 > 100 µM | SNB-19 > 100 µM | SR > 100 µM

CN1CCN(Cn2nc(COc3ccccc3Cl)n(/N=C/c3ccc(-c4ccc(Cl)cc4Cl)o3)c2=S)CC1
inactive: CAKI-1 22.7 µM | CCRF-CEM 25.6 µM | DU-145 20 µM | HL-60 24.8 µM | HOP-62 21.4 µM | K562 21.3 µM | KM12 19.7 µM | LOX IMVI 33.4 µM | MCF7 19.6 µM | NCI-H226 51.5 µM | NCI-H23 17.9 µM | NCI/ADR-RES 21.7 µM | OVCAR-4 20 µM | OVCAR-5 35.6 µM | PC-3 23.8 µM | SF-539 27 µM | SK-MEL-28 60.5 µM | SR 24.3 µM

O=S(=O)(O)C(c1ccccc1)C(O)c1ccccc1 (stereo unspecified)
inactive: CAKI-1 > 100 µM | CCRF-CEM > 100 µM | DU-145 > 100 µM | HL-60 > 100 µM | HOP-62 > 100 µM | K562 > 100 µM | KM12 > 100 µM | LOX IMVI > 100 µM | MCF7 > 100 µM | NCI-H226 > 100 µM | NCI-H23 > 100 µM | NCI/ADR-RES > 100 µM | OVCAR-4 > 100 µM | OVCAR-5 > 100 µM | PC-3 > 100 µM | SK-MEL-28 > 100 µM | SNB-19 > 100 µM | SR > 100 µM

CCOC1=C(c2ccccc2)N2CCCCC2O1 (stereo unspecified)
inactive: CAKI-1 26.5 µM | CCRF-CEM 2.94 µM | DU-145 4.19 µM | HL-60 1.5 µM | HOP-62 4.6 µM | K562 2.03 µM | KM12 3.27 µM | LOX IMVI 3.77 µM | MCF7 3.76 µM | NCI-H226 3.42 µM | NCI-H23 3.29 µM | NCI/ADR-RES 23.7 µM | OVCAR-5 3.94 µM | PC-3 2.61 µM | SF-539 9.29 µM | SK-MEL-28 12.3 µM | SNB-19 3.76 µM | SR 3.71 µM

O=C1CC(CC(O)C(O)C(O)CO)CC(=O)N1 (stereo unspecified)
inactive: CAKI-1 > 100 µM | CCRF-CEM > 100 µM | DU-145 > 100 µM | HL-60 > 100 µM | HOP-62 > 100 µM | K562 > 100 µM | KM12 > 100 µM | LOX IMVI > 100 µM | MCF7 > 100 µM | NCI-H226 > 100 µM | NCI-H23 > 100 µM | NCI/ADR-RES > 100 µM | OVCAR-4 > 100 µM | OVCAR-5 > 100 µM | PC-3 > 100 µM | SF-539 > 100 µM | SK-MEL-28 > 100 µM | SR > 100 µM

Nc1nc(SCC(=O)c2ccc(Br)cc2)c2nc[nH]c2n1
inactive: CAKI-1 26.2 µM | CCRF-CEM 6.28 µM | DU-145 27.5 µM | HL-60 25.3 µM | HOP-62 44.9 µM | K562 18.1 µM | KM12 44.8 µM | LOX IMVI 31.4 µM | MCF7 56.4 µM | NCI-H226 27.1 µM | NCI-H23 45.2 µM | NCI/ADR-RES 27.4 µM | OVCAR-4 53.3 µM | OVCAR-5 47.1 µM | PC-3 34.2 µM | SK-MEL-28 65.2 µM | SNB-19 > 100 µM | SR 17.9 µM

COc1ccc2c(c1C)C(=O)C(O)(CC=C(C)C)O2 (stereo unspecified)
inactive: CAKI-1 > 100 µM | CCRF-CEM > 100 µM | DU-145 > 100 µM | HL-60 > 100 µM | HOP-62 > 100 µM | K562 > 100 µM | KM12 > 100 µM | LOX IMVI > 100 µM | MCF7 > 100 µM | NCI-H226 > 100 µM | NCI-H23 > 100 µM | NCI/ADR-RES > 100 µM | OVCAR-5 > 100 µM | PC-3 62.8 µM | SF-539 > 100 µM | SK-MEL-28 > 100 µM | SNB-19 > 100 µM | SR > 100 µM

CC(C)CC(NC(=O)C(CI)Cc1ccccc1)C(=O)Nc1ccccc1 (stereo unspecified)
inactive: CAKI-1 > 100 µM | CCRF-CEM > 100 µM | DU-145 > 100 µM | HL-60 > 100 µM | K562 > 100 µM | KM12 > 100 µM | LOX IMVI > 100 µM | MCF7 > 100 µM | NCI-H23 > 100 µM | NCI/ADR-RES > 100 µM | OVCAR-4 50 µM | OVCAR-5 > 100 µM | PC-3 > 100 µM | SF-539 > 100 µM | SK-MEL-28 > 100 µM | SNB-19 > 100 µM | SR 68.9 µM

CC(C)(C)c1cc2c(O)c(c1)COCc1cc(C(C)(C)C)cc(c1O)COCc1cc(C(C)(C)C)cc(c1O)COC2
inactive: CCRF-CEM 59 µM | DU-145 32.5 µM | HL-60 31.1 µM | HOP-62 > 100 µM | K562 > 100 µM | KM12 64.6 µM | LOX IMVI 29.4 µM | MCF7 > 100 µM | NCI-H226 > 100 µM | NCI-H23 46.1 µM | NCI/ADR-RES > 100 µM | OVCAR-4 > 100 µM | OVCAR-5 > 100 µM | PC-3 > 100 µM | SK-MEL-28 > 100 µM | SNB-19 6.04 µM | SR > 100 µM

Fc1cccc(F)c1C1SCc2nc3ccc(Cl)cc3n21 (stereo unspecified)
inactive: CAKI-1 > 100 µM | CCRF-CEM > 100 µM | DU-145 > 100 µM | HL-60 40.5 µM | HOP-62 > 100 µM | K562 51.1 µM | KM12 63 µM | LOX IMVI > 100 µM | MCF7 > 83 µM | NCI-H23 > 100 µM | NCI/ADR-RES > 100 µM | OVCAR-4 85.3 µM | OVCAR-5 > 100 µM | PC-3 > 82.8 µM | SF-539 > 100 µM | SK-MEL-28 > 100 µM | SNB-19 > 100 µM | SR 48.4 µM

CC[N+](C)(CC)CCC(O)(c1ccccc1)c1ccccc1
inactive: CCRF-CEM > 100 µM | DU-145 > 100 µM | HL-60 > 100 µM | HOP-62 > 100 µM | K562 > 100 µM | KM12 > 100 µM | LOX IMVI > 100 µM | MCF7 > 100 µM | NCI-H226 > 100 µM | NCI-H23 > 100 µM | NCI/ADR-RES > 100 µM | OVCAR-4 > 100 µM | OVCAR-5 > 100 µM | PC-3 > 100 µM | SK-MEL-28 > 100 µM | SNB-19 > 100 µM | SR > 100 µM

COc1ccc([N+](=O)[O-])cc1[I+]c1cc([N+](=O)[O-])ccc1OC
inactive: CAKI-1 38.6 µM | CCRF-CEM 25.4 µM | DU-145 > 100 µM | HL-60 20.7 µM | HOP-62 > 100 µM | K562 35 µM | KM12 22.7 µM | LOX IMVI 29.4 µM | MCF7 31.9 µM | NCI-H226 53.2 µM | NCI-H23 55.1 µM | NCI/ADR-RES > 100 µM | OVCAR-5 > 100 µM | PC-3 52 µM | SF-539 44 µM | SK-MEL-28 7.64 µM | SNB-19 34.9 µM | SR 12.3 µM

COCCOC(C)C(=O)C(O)S(=O)(=O)O (stereo unspecified)
inactive: CCRF-CEM > 100 µM | DU-145 > 100 µM | HL-60 > 100 µM | HOP-62 > 100 µM | K562 > 100 µM | KM12 > 100 µM | MCF7 > 100 µM | NCI-H226 > 100 µM | NCI-H23 > 100 µM | NCI/ADR-RES > 100 µM | OVCAR-4 > 100 µM | OVCAR-5 > 100 µM | PC-3 > 100 µM | SF-539 > 100 µM | SK-MEL-28 > 100 µM | SNB-19 > 100 µM | SR > 100 µM

C=CC(C)(C)c1cc([C@@H]2COc3cc(O)ccc3C2=O)c(O)c(OC)c1OC
inactive: CCRF-CEM 16.6 µM | DU-145 14.8 µM | HL-60 6.75 µM | K562 9.66 µM | KM12 13.2 µM | LOX IMVI 16.6 µM | MCF7 14.8 µM | NCI-H226 16.5 µM | NCI-H23 10.4 µM | NCI/ADR-RES 12.6 µM | OVCAR-4 3.94 µM | OVCAR-5 17.1 µM | PC-3 12.9 µM | SF-539 18.8 µM | SK-MEL-28 19.5 µM | SNB-19 13.5 µM | SR 8.18 µM

N#CC1=C(N)Nc2nc3ccccc3n2C1c1ccccc1 (stereo unspecified)
inactive: CAKI-1 46.8 µM | CCRF-CEM 6.44 µM | DU-145 35.3 µM | HL-60 > 100 µM | HOP-62 88.1 µM | K562 59.7 µM | KM12 53.7 µM | LOX IMVI 62.7 µM | MCF7 97.7 µM | NCI-H23 > 100 µM | NCI/ADR-RES > 100 µM | OVCAR-5 > 100 µM | PC-3 46.1 µM | SF-539 > 100 µM | SNB-19 > 100 µM | SR 83.6 µM
